In US20050065596A1, “Stents capable of controllably releasing histone deacetylase inhibitors” (priority 2002, published 2005):

Legend:
Assay type in all cases: cell-based
Human aortic SMCs [1] = assay: MTT assay of cell proliferation
Method: (§1) Human aortic SMCs were obtained from BioWhittaker Molecular Applications, Inc. (Clonetics, CC-2571), cultured in Smooth Muscle Medium-2 (BioWhittaker Molecular Applications, Inc., CC-3182), and maintained at 37° C. in humidified 95% air/5% CO2. Human aortic SMCs of passages 8-9 were used in the following experiments.
(§2) Cell proliferation was measured by MTT assay and cell counting.
(§3) Human aortic SMCs cells were seeded, at a density of 6×10^3 cells/well, in a 24-well plate (about 3×10^3 cells/cm^2, quadruplicates). Following cell attachment for 24 hours, the above drugs were added to the cells, to achieve the following final concentrations: 100 nM and 500 nM of TSA, 10 nM of RPM, and 50 nM of Paclitaxel.
Following three additional days of incubation, 50 μl MTT (methylthiazoletetrazolium, 5 mg/ml in sterile H2O) were added in 0.5 ml medium to each well, and the cells were incubated at 37° C. for 4 hours. The medium was then aspirated, and the cells were dissolved in 300 μl 0.1 N HCl/isopropanol, mixed thoroughly, and a 100 μl portion of the mixture was transferred into a 96-well plate;
The 96-well plate was applied to a micro-plate reader and the absorbance at 570 nm was read. The average reading of wells containing only medium was set as the Control. For each sample, the proliferation rate was determined by the following equation: (Reading/Control)×100=Proliferation Rate (% of Control).

Human aortic SMCs [2] = assay: Morphological analysis of human aortic SMCs after one day incubation with drug; conditions: FIG. 12; for morphological changes observed in a 40× microscope field: one day incubation, 100 nM and 500 nM TSA, 10 nM RPM, 50 nM Paclitaxel
Method: as §1, §3
Following a one day incubation with the drug, the morphological changes in the cells were evaluated under a microscope.

Human aortic SMCs [3] = assay: Cell counting (growth curves); conditions: 50 nM TSA; days 0-14, medium with TSA replaced every 2-3 days; vs control cells; FIG. 14
Method: as §1, §2
Human aortic SMCs cells were seeded, at a density of […], in a 24-well plate (about 1.5×10^3 cells/cm^2, in triplicates). Following cell attachment for 24 hours, TSA was added to achieve a final concentration of 50 nM.
Every 2-3 days, the medium was removed and replaced with a fresh medium containing TSA. Control cells were treated with medium without TSA.
On days 0, 1, 2, 3, 6, 9, and 14 post-treatment, the cells were trypsinized and counted with a hemacytometer.

Structure (SMILES) | cytotoxicity on SMCs (Human aortic SMCs [1]; 50 nM Paclitaxel, before the application of MTT assay) | morphological changes observed in a 40× microscope field (Human aortic SMCs [2]) | inhibitory effect on the growth of the human SMCs (proliferation rate, MTT) (Human aortic SMCs [1]; 100 nM TSA and 500 nM TSA, four days incubation, FIG. 13) | continuous effect on SMCs growth (growth curves, cell counting) (Human aortic SMCs [3]) | nature of the inhibitory effect on SMCs (Human aortic SMCs [2]; concluded from the morphological analysis)
CC(=O)O[C@H]1C(=O)[C@@]2(C)[C@H]([C@H](OC(=O)c3ccccc3)[C@]3(O)C[C@H](OC(=O)[C@H](O)[C@@H](NC(=O)c4ccccc4)c4ccccc4)C(C)=C1C3(C)C)[C@]1(OC(C)=O)CO[C@@H]1C[C@@H]2O [Paclitaxel] | high cytotoxicity on SMCs and caused cell death | Rounded up pro-apoptotic cells appeared | – | – | –
CC(/C=C/C(=O)NO)=C\[C@@H](C)C(=O)c1ccc(N(C)C)cc1 [TSA, Trichostatin A] | – | No morphological changes | inhibits SMC proliferation in vitro in a dose-dependent mainer | significant inhibitory effect | mainly cytostatic
